Measured values published in patent US20110039873A1, “SUBSTITUTED PYRAZOLO[1,5-a] PYRIDINE COMPOUNDS HAVING MULTI-TARGET ACTIVITY” (priority 2009, published 2011).
Read-outs that look alike come from different tables or passages of the source.

Tests used:
[1] = tested on: phosphorylated c-Jun (serine-73); experiment: Phosphorylated c-JUN (A-beta), E18 rat neuronal cells; type: cell-based; details: Amyloid Beta peptide 30 uM, 3 hours, read-out: p-cJun Abeta E18 (EC50 in μM)
Experimental: (§1) In 96-well plates either human SH-SY5Y neuroblastoma cells at 2.5×10^4 cells/well or E18 rat neuronal cells at 1.5×10^4 cells/well were seeded. To each well the following was added, Amyloid Beta peptide 1-25 (source) at a concentration of 30 uM, retinoic acid (10 uM) and test compounds (0-30 uM) and incubated for 3 hours. Supernatant was discarded and cells were fixed with 4% paraformaldehyde (100 ul/well) for 20 minutes. FACE cell based ELISA assay (Active Motif) was performed specific for quantifying phosphorlyated c-Jun (serine-73).

[2] = molecular target: T1, recombinant full length human JNK2 enzyme (Homo sapiens, UniProt P45984); experiment: JNK 2 inhibition assay (ATP depletion, luciferase); type: biochemical
T1 construct: recombinant full length human JNK2 or JNK3 enzyme; purchased Upstate; host or cells: Sf21 cells
Experimental: In a 96-well plate, recombinant full length human JNK2 or JNK3 enzyme (40 ng) expressed in Sf21 cells (Upstate) was incubated with the substrate ATF2 (3 uM) for 1 hour in the presence of 10 uM ATP. […] IC50 calculations were plotted using a nonlinear regression curve fit.

[3] = molecular target: T2, recombinant human phosphodiesterase 10A1 enzyme (Homo sapiens, UniProt Q9Y233); experiment: PDE10 inhibition assay (PDELight); type: biochemical; details: for IC50: 1 uM cAMP, read-out: PDE 10 Inhibition (IC50 in μM); for PDE-10 inhibition (in words): Table 2
T2 construct: purchased BPS Biosciences; host or cells: Baculovirus infected Sf9 cells

[4] = molecular target: T3, catalytic domain of phosphodiesterase 4B enzyme cloned from human brain (Homo sapiens, UniProt Q07343); experiment: PDE4 inhibition assay (PDELight); type: biochemical; details: for IC50: 5 uM cAMP, read-out: PDE 4 Inhibition (IC50 in μM)
T3 construct: the catalytic domain of phosphodiesterase 4B enzyme; purchased Scottish Biomedical
How it was run: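 Human PDE4B catalytic domain (40 mU/well) incubated with 5 uM cAMP. AMP formed was converted to ATP and measured by luciferase luminescence (PDELight). IC50 derived by nonlinear regression curve fit.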

[5] = molecular target: T4, recombinant full length human JNK3 enzyme (Homo sapiens, UniProt P53779); experiment: JNK 3 inhibition assay (ATP depletion, luciferase); type: biochemical; details: for IC50: 10 uM ATP, ATF2 substrate; for JNK-3 inhibition (in words): see Table 2
T4 construct: recombinant full length human JNK2 or JNK3 enzyme; purchased Upstate; host or cells: Sf21 cells
Experimental: In a 96-well plate, recombinant full length human JNK2 or JNK3 enzyme (40 ng) expressed in Sf21 cells (Upstate) was incubated with the substrate ATF2 (3 uM) for 1 hour in the presence of 10 uM ATP. […] The ATP levels were quantified using luciferase with luminescence read on a Victor Light 1420 luminometer. IC50 calculations were plotted using a nonlinear regression curve fit.

[6] = tested on: rat chronic constriction injury (CCI) model of neuropathic pain; experiment: Rat chronic constriction injury (CCI) model of neuropathic pain; type: in vivo
[7] = Oral pharmacokinetic evaluation; type: in vivo, rat; details: Sprague-Dawley rats; for AUC(0-t) / Cmax / half-life: male, rat, plasma; for AUC(0-t): read-out: Oral PK AUClast; for Cmax: read-out: Oral PK Cmax; for half-life: Sprague-Dawley, po, 15 mg/kg
Experimental: Three male Sprague-Dawley rats were dosed orally via gavage with 15 mg/kg of test compound. Serial blood samples were collected from the jugular vein at 5, 15, and 30 min, 1, 3, and 6 hours post dosing. Samples were processed for plasma via centrifugation and plasma samples were stored frozen prior to analysis via a sensitive and specific HPLC/MS/MS method. PK parameters were calculated using WinNonLin (Pharsight).

[8] = tested on: at least one of JNK 3 or JNK 2 and at least one of PDE 10 or PDE 4; experiment: Dual inhibition (phosphodiesterase and JNK); type: biochemical, human; details: IC50 JNK 3 or JNK 2 less than about 5.00 μM and PDE 10 or PDE 4 less than about 20.0 or 30.0 μM
How it was run: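 JNK2/JNK3: full-length human enzyme with 3 uM ATF2 and 10 uM ATP for 1 h, ATP depletion by luciferase luminescence. PDE4B catalytic domain with 5 uM cAMP, or PDE10A1 with 1 uM cAMP, 1 h; AMP converted to ATP for luminescence. Compounds 0–30 uM; IC50 by nonlinear regression.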

[9] = tested on: phosphorylated c-Jun (serine-73); experiment: Phosphorylated c-JUN (A-beta), SH-SY5Y; type: cell-based; details: Homo sapiens, Amyloid Beta peptide 30 uM, 3 hours, read-out: p-cJun Abeta SH-SY5Y (EC50 in μM)
Experimental: as §1, with “To each well the following was added, Amyloid Beta peptide 1-25 (source) at a concentration of 30 uM, retinoic acid (10 uM) and test compounds (0-30 uM) and incubated for 3 hours.” left out

[10] = tested on: phosphorylated c-Jun (serine-73); experiment: Phosphorylated c-JUN (6-OHDA), SH-SY5Y; type: cell-based; details: Homo sapiens, 50 uM 6-hydroxydopamine, 1.5 hours, read-out: p-cJun 6-OHDA SH-SY5Y (EC50 in μM)
Experimental: Human SH-SY5Y neuroblastoma cells were cultured in 96-well plates with 2.5×10^4 cells/well and incubated for 48 hours. 6-hydroxydopamine was added at a concentration of 50 uM in the presence or absence of test compounds (0-30 uM) and incubated for 1.5 hours. Supernatant was discarded and cells were fixed with 4% paraformaldehyde (100 ul/well) for 20 minutes. FACE cell based ELISA assay (Active Motif) was performed specific for quantifying phosphorlyated c-Jun (serine-73).

[11] = tested on: Mouse BV-2 microglial cells; experiment: BV-2 glial cell assay (TNF-α and MCP-1 by Luminex); type: cell-based; details: for EC50: Mus musculus, BV-2, LPS and IFN-γ activated, 20 hours; for inhibiting glial cell activation (TNF-α and/or MCP-1): Table 3
Experimental: Mouse BV-2 microglial cells were seeded on 96-well plates at a concentration of 3×10^4 cells/well. Cells were activated with 100 ng/mL LPS and IFN-γ (100 ng/mL) in the presence or absence of test compounds (0-30 uM). Following incubation for 20 hours, cells were spun down and supernatant collected. The supernatant was analyzed via Luminex for the presence of TNF-α and MCP-1.

[12] = tested on: JNK kinase; experiment: Amyloid beta-induced phosphorylation of JNK kinase (FIG. 2); type: cell-based; details: neuronal cells stimulated with Amyloid Beta, ELISA
Experimental: as §1
Neuronal cells were stimulated with Amyloid Beta, the Alzheimer's related peptide, resulting in phosphorylation of JNK kinase as measured by ELISA.

[13] = Water solubility; type: physicochemical; details: defined as at least 10 milligrams per milliliter in water at 25° C. and pH 7.0
Experimental: By “water soluble” is meant a compound that is soluble in water to an extent of at least 10 milligrams per milliliter in water at 25° C. and a pH 7.0.

[14] = read-out: IC50 value based upon a JNK 2 inhibition assay (range given)
[15] = dose not given, 50% paw withdrawal threshold, von Frey
[16] = 10 uM ATP, ATF2 substrate, read-out: JNK 2 Inhibition (IC50 in μM)
[17] = read-out: MCP-1 BV-2 (EC50 in μM)
[18] = read-out: TNF-a BV-2 (EC50 in μM)

T2 sequence (Q9Y233 1-779 isoform Q9Y233-1): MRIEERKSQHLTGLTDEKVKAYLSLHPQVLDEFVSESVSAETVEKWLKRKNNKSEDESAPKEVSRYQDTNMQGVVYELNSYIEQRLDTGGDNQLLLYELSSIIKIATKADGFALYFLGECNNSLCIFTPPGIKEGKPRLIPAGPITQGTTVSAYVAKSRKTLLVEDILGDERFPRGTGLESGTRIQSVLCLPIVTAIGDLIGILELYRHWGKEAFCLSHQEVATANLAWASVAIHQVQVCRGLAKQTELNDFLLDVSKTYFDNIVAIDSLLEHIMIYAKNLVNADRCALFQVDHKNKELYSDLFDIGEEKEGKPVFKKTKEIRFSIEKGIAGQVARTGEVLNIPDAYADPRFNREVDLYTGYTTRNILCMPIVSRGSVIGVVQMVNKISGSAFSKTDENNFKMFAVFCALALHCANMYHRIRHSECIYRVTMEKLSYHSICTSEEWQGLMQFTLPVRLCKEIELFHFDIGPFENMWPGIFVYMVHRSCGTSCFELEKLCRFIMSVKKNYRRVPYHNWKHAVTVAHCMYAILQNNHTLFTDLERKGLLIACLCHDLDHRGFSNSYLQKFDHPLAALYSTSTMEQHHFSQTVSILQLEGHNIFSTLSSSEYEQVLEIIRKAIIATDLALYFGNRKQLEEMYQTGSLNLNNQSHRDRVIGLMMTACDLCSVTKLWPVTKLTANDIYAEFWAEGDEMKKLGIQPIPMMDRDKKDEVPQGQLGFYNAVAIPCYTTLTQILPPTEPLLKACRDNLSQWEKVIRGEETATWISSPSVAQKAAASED
T3 sequence (Q07343 330-659 limits assumed): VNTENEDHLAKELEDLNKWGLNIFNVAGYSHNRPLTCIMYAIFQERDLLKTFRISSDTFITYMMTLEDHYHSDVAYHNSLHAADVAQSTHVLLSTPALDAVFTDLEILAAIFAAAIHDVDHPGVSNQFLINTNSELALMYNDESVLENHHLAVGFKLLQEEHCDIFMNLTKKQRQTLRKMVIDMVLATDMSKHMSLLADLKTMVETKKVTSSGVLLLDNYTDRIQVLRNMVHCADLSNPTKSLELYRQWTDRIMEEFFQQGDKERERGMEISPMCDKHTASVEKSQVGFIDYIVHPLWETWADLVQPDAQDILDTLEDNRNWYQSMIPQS
T4 sequence (P53779 whole entry): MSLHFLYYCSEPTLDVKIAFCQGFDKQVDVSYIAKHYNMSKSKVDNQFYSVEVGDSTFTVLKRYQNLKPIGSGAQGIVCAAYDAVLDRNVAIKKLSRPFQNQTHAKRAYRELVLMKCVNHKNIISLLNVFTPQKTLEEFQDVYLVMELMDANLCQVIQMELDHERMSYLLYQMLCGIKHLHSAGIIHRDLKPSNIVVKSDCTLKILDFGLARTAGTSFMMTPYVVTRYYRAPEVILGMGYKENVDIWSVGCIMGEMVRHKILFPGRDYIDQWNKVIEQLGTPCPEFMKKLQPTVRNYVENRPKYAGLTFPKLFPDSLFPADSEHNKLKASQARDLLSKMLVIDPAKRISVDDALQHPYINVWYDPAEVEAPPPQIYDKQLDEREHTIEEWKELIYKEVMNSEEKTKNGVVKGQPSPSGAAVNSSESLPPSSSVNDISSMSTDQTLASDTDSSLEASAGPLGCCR
T1 sequence (P45984 whole entry): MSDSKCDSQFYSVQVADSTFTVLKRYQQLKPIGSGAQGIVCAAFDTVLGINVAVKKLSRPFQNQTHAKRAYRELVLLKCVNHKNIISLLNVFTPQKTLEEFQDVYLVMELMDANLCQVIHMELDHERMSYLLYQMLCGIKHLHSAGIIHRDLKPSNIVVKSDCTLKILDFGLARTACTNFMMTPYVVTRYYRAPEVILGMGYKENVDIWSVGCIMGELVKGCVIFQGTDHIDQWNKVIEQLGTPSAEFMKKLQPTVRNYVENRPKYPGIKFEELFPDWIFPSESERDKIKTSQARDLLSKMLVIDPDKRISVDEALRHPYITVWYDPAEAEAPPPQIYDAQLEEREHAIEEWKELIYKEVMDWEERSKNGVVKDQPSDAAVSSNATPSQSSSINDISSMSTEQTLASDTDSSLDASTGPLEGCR

Question: With `CCCNc1nccc(-c2c(C(C)C)nn3ccccc23)n1` [AV1153, 4-(2-isopropylpyrazolo[1,5-a]pyridin-3-yl)-N-propylpyrimidin-2-amine] as the compound, how does the EC50 [1] read?
Answer: 3.6 µM

Question: What about the IC50 [2, 14] of the same compound?
Answer: 0.01 to 2 µM

Question: What about the IC50 [3] of the same compound?
Answer: 8.9 µM

Question: And the “PDE-10 inhibition (in words)” value [3]?
Answer: particularly effective

Question: And the “PDE-4 inhibition (in words)” value [4]?
Answer: particularly effective

Question: What about the IC50 [4] of the same compound?
Answer: 11.5 µM

Question: What about the IC50 [5] of the same compound?
Answer: 4.1 µM

Question: And the “IP CCI efficacy (Change in grams)” value [6, 15]?
Answer: 1.85 grams

Question: What about the AUC(0-t) ([7]; 15 mg/kg oral gavage) of the same compound?
Answer: 32 ng·h/mL

Question: And the Cmax ([7]; 15 mg/kg oral gavage)?
Answer: 13 ng/mL

Question: And the “dual inhibition (phosphodiesterase and JNK)” value (from here on “dual inhibition”) [8]?
Answer: effective dual inhibitors

Question: And the EC50 [9]?
Answer: > 30 µM

Question: And the EC50 [10]?
Answer: > 30 µM

Question: What does the source list for `CC(C)c1nn2ccccc2c1-c1ccnc(NC2CCCC2)n1` [AV1154, N-cyclopentyl-4-(2-isopropylpyrazolo[1,5-a]pyridin-3-yl)pyrimidin-2-amine]?
Answer: EC50 [1]: 13 µM; IC50 [3]: 3 µM; PDE-10 inhibition (in words) [3]: particularly effective; PDE-4 inhibition (in words) [4]: particularly effective; IC50 [4]: 7.1 µM; IC50 [5]: 6 µM; IP CCI efficacy (Change in grams) [6, 15]: 0 grams; dual inhibition (phosphodiesterase and JNK) [8]: effective dual inhibitors; EC50 [9]: > 10 µM; EC50 [10]: 3.4 µM

Question: For `CCCNc1nccc(-c2cnn3ccccc23)n1` [AV1166, N-propyl-4-(pyrazolo[1,5-a]pyridin-3-yl)pyrimidin-2-amine], which EC50 [1] is on record?
Answer: 37 µM

Question: And the IC50 [2, 16]?
Answer: 1.3 µM

Question: And the IC50 [2, 14]?
Answer: 0.01 to 2 µM

Question: And the IC50 [3]?
Answer: 38.2 µM

Question: And the “PDE-10 inhibition (in words)” value [3]?
Answer: particularly effective

Question: What about the EC50 [11, 17] of the same compound?
Answer: 1.1 µM

Question: And the EC50 [11, 18]?
Answer: 0.9 µM

Question: And the “inhibiting glial cell activation (TNF-α and/or MCP-1)” value (shortened to “inhibiting glial cell activation”) [11]?
Answer: Particularly effective

Question: What about the IC50 [4] of the same compound?
Answer: 16.5 µM

Question: And the IC50 [5]?
Answer: 0.4 µM

Question: What about the “JNK-3 inhibition (in words)” value [5] of the same compound?
Answer: particularly effective

Question: And the “dual inhibition” value [8]?
Answer: effective dual inhibitors

Question: And the EC50 [9]?
Answer: 11 µM

Question: What about the EC50 [10] of the same compound?
Answer: 1.4 µM

Question: Which IC50 [3] does the source give for `Cc1cccc2c(-c3ccnc(NC4CCCC4)n3)cnn12` [AV1184, N-cyclopentyl-4-(7-methylpyrazolo[1,5-a]pyridin-3-yl)pyrimidin-2-amine] here?
Answer: 32 µM

Question: What about the EC50 [11, 17] of the same compound?
Answer: 0.9 µM

Question: And the EC50 [11, 18]?
Answer: 0.3 µM

Question: And the “inhibiting glial cell activation” value [11]?
Answer: Particularly effective

Question: And the IC50 [4]?
Answer: 15.5 µM

Question: What about the IC50 [5] of the same compound?
Answer: 0.4 µM

Question: What about the “JNK-3 inhibition (in words)” value [5] of the same compound?
Answer: particularly effective

Question: What about the “inhibition of amyloid beta-induced phosphorylation of JNK kinase” value [12] of the same compound?
Answer: capable of inhibiting phosphorylation of JNK kinase in a dose-dependent manner

Question: What about the AUC(0-t) ([7]; 15 mg/kg oral gavage) of the same compound?
Answer: < 10 ng·h/mL

Question: What about the Cmax ([7]; 15 mg/kg oral gavage) of the same compound?
Answer: < 5 ng/mL

Question: And the “dual inhibition” value [8]?
Answer: effective dual inhibitors

Question: And the EC50 [9]?
Answer: 8.3 µM

Question: And the EC50 [10]?
Answer: 0.7 µM

Question: Which IC50 [2, 16] does the source give for `c1ccn2nc(C3CC3)c(-c3ccnc(NC4CC4)n3)c2c1` [AV1200, N-cyclopropyl-4-(2-cyclopropylpyrazolo[1,5-a]pyridin-3-yl)pyrimidin-2-amine] here?
Answer: 1.6 µM

Question: And the IC50 [2, 14]?
Answer: 0.01 to 2 µM

Question: What about the IC50 [3] of the same compound?
Answer: 7.7 µM

Question: What about the “PDE-10 inhibition (in words)” value [3] of the same compound?
Answer: particularly effective

Question: What about the EC50 [11, 17] of the same compound?
Answer: 0.3 µM

Question: What about the EC50 [11, 18] of the same compound?
Answer: 1 µM

Question: And the “inhibiting glial cell activation” value [11]?
Answer: Particularly effective

Question: What about the “PDE-4 inhibition (in words)” value [4] of the same compound?
Answer: particularly effective

Question: What about the IC50 [4] of the same compound?
Answer: 2.7 µM

Question: And the IC50 [5]?
Answer: 1.9 µM

Question: What about the “JNK-3 inhibition (in words)” value [5] of the same compound?
Answer: particularly effective

Question: What about the “IP CCI efficacy (Change in grams)” value ([6]; 10 mg/kg) of the same compound?
Answer: 0 (10 mg/kg); grams

Question: And the “IP CCI efficacy (Change in grams)” value ([6]; 20 mg/kg)?
Answer: 1.8 (20 mg/kg) grams

Question: And the “PO CCI efficacy (Change in grams)” value ([6]; 30 mg/kg)?
Answer: 0 (30 mg/kg); grams

Question: And the “PO CCI efficacy (Change in grams)” value ([6]; 60 mg/kg)?
Answer: 1.25 (60 mg/kg) grams

Question: And the “half life following oral dosing (in words)” value ([7]; oral)?
Answer: particularly prolonged half lives

Question: And the half-life ([7]; 15 mg/kg oral gavage, read-out: Oral PK T½ (converted))?
Answer: 4.7 h

Question: And the half-life ([7]; oral, read-out: half life following oral dosing)?
Answer: > 3 h

Question: What about the AUC(0-t) ([7]; 15 mg/kg oral gavage) of the same compound?
Answer: 1700 ng·h/mL

Question: And the Cmax ([7]; 15 mg/kg oral gavage)?
Answer: 420 ng/mL

Question: And the “dual inhibition” value [8]?
Answer: effective dual inhibitors

Question: And the water soluble [13]?
Answer: water soluble
